Test results reported in patent USRE39591E1, “6-O-substituted ketolides having antibacterial activity” (Abbott Laboratories, priority 1996, dated 2007).
≈ marks a conversion by molar mass, not a printed value.

Tested on: up to 32 different microorganisms
Assay: in vitro antibacterial activity (MIC), agar dilution on Brain Heart Infusion (BHI) agar with Steers replicator
Format: cell-based
Conditions: unit assumed
Method in brief: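 Up to 32 strains were replicator-inoculated (1:100, or 1:10 for Micrococcus and Streptococcus) onto BHI agar plates holding serial compound dilutions and kept 20-24 h at 35-37° C. Plates were read visually against drug-free growth controls, with erythromycin A run alongside; MIC was the lowest concentration giving no growth, slight haze or sparse colonies.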

[1] = Candida albicans CCH 442 (code TT)
[2] = Enterococcus faecism ATCC 8043 (code II)
[3] = Escherichia coli DC-2 (code SS)
[4] = Escherichia coli JUHL (code QQ)
[5] = Haemophilis influenzae DILL AMP R (code WW)
[6] = Micrococcus luteus ATCC 4698 (code PP)
[7] = Micrococcus luteus ATCC 9341 (code OO)
[8] = Mycobacterium smegmatis ATCC 114 (code UU)
[9] = Nocardia Asteroides ATCC9970 (code VV)
[10] = Staphylococcus aureus 1775 (code GG)
[11] = Staphylococcus aureus A5177 (code BB)
[12] = Staphylococcus aureus A-5278 (code CC)
[13] = Staphylococcus aureus ATCC 6538P (code AA)
[14] = Staphylococcus aureus CMX 553 (code FF)
[15] = Staphylococcus aureus CMX 642A (code DD)
[16] = Staphylococcus aureus NCTC10649M (code EE)
[17] = Staphylococcus epidermidis 3519 (code HH)
[18] = Streptococcus Pneumonia 5649 (code ZZA)
[19] = Streptococcus Pneumonia 5979 (code ZZ)
[20] = Streptococcus Pneumonia ATCC6303 (code XX)
[21] = Streptococcus Pneumonia GYR 1171 (code YY)
[22] = Streptococcus agalactiae CMX 508 (code KK)
[23] = Streptococcus bovis A-5169 (code JJ)
[24] = Streptococcus pyogenes 930 (code MM)
[25] = Streptococcus pyogenes EES61 (code LL)
[26] = Streptococcus pyogenes PIU 2548 (code NN)

Row | Compound | MIC [1] | MIC [2] | MIC [3] | MIC [4] | MIC (Escherichia coli SS (code RR)) | MIC [6] | MIC [7] | MIC [8] | MIC [9] | MIC [10] | MIC [11] | MIC [12] | MIC [13] | MIC [14] | MIC [15] | MIC [16] | MIC [17] | MIC [22] | MIC [23] | MIC [24] | further results
1 | CC[C@H]1OC(=O)[C@H](C)C(=O)[C@H](C)[C@@H](O[C@@H]2O[C@H](C)C[C@H](N(C)C)[C@H]2O)[C@@](C)(OCCNCCc2ccccc2)C[C@@H](C)C(=O)[C@H](C)[C@@H](O)[C@]1(C)O [Example 10] | > 100 µg/mL | 6.2 µg/mL (≈ 8.6 µM) | > 100 µg/mL | > 100 µg/mL | 1.56 µg/mL (≈ 2.16 µM) | 1.56 µg/mL (≈ 2.16 µM) | 0.2 µg/mL (≈ 0.277 µM) | 12.5 µg/mL (≈ 17.3 µM) | 1.56 µg/mL (≈ 2.16 µM) | > 100 µg/mL | 6.2 µg/mL (≈ 8.6 µM) | > 100 µg/mL | 6.2 µg/mL (≈ 8.6 µM) | 6.2 µg/mL (≈ 8.6 µM) | 6.2 µg/mL (≈ 8.6 µM) | 6.2 µg/mL (≈ 8.6 µM) | 6.2 µg/mL (≈ 8.6 µM) | 1.56 µg/mL (≈ 2.16 µM) | 0.2 µg/mL (≈ 0.277 µM) | > 100 µg/mL | MIC [5]: 64 µg/mL (≈ 88.8 µM); MIC [18]: 4 µg/mL (≈ 5.55 µM); MIC [19]: > 128 µg/mL; MIC [20]: 2 µg/mL (≈ 2.77 µM); MIC [21]: 2 µg/mL (≈ 2.77 µM); MIC [25]: 0.39 µg/mL (≈ 0.541 µM); MIC [26]: 1.56 µg/mL (≈ 2.16 µM)
2 | CCC1OC(=O)C(C)C(=O)C(C)C(OC2OC(C)CC(N(C)C)C2O)C(C)(OCC=Cc2ccc3[nH]ccc3c2)CC(C)C(=O)C(C)C2NC(=O)OC12C (stereo not shown) [Example 190, R is —CH2CH═CH-(5-indolyl)] | > 100 µg/mL | 0.02 µg/mL (≈ 0.0265 µM) | 100 µg/mL (≈ 133 µM) | 100 µg/mL (≈ 133 µM) | 0.2 µg/mL (≈ 0.265 µM) | 0.1 µg/mL (≈ 0.133 µM) | 0.01 µg/mL (≈ 0.0133 µM) | 0.78 µg/mL (≈ 1.03 µM) | 0.1 µg/mL (≈ 0.133 µM) | > 100 µg/mL | 0.05 µg/mL (≈ 0.0663 µM) | > 100 µg/mL | 0.05 µg/mL (≈ 0.0663 µM) | 0.02 µg/mL (≈ 0.0265 µM) | 0.05 µg/mL (≈ 0.0663 µM) | 0.02 µg/mL (≈ 0.0265 µM) | 0.05 µg/mL (≈ 0.0663 µM) | ≤ 0.005 µg/mL | ≤ 0.005 µg/mL | 12.5 µg/mL (≈ 16.6 µM) | MIC [5]: 4 µg/mL (≈ 5.31 µM); MIC [18]: 0.5 µg/mL (≈ 0.663 µM); MIC [19]: > 128 µg/mL; MIC [20]: 0.06 µg/mL (≈ 0.0796 µM); MIC [21]: 0.03 µg/mL (≈ 0.0398 µM); MIC [25]: ≤ 0.005 µg/mL; MIC [26]: 0.1 µg/mL (≈ 0.133 µM)
3 | CCC1OC(=O)C(C)C(=O)C(C)C(OC2OC(C)CC(N(C)C)C2O)C(C)(OCC=Cc2cncc3ccccc23)CC(C)C(=O)C(C)C2NC(=O)OC12C (stereo not shown) [Example 187, R is —CH2CH═CH-(4-isoquinolinyl)] | > 100 µg/mL | 0.02 µg/mL (≈ 0.0261 µM) | > 100 µg/mL | 100 µg/mL (≈ 131 µM) | 0.39 µg/mL (≈ 0.509 µM) | 0.02 µg/mL (≈ 0.0261 µM) | 0.02 µg/mL (≈ 0.0261 µM) | 0.78 µg/mL (≈ 1.02 µM) | 0.1 µg/mL (≈ 0.131 µM) | > 100 µg/mL | 0.1 µg/mL (≈ 0.131 µM) | > 100 µg/mL | 0.2 µg/mL (≈ 0.261 µM) | 0.1 µg/mL (≈ 0.131 µM) | 0.1 µg/mL (≈ 0.131 µM) | 0.1 µg/mL (≈ 0.131 µM) | 0.1 µg/mL (≈ 0.131 µM) | 0.02 µg/mL (≈ 0.0261 µM) | ≤ 0.005 µg/mL | 25 µg/mL (≈ 32.6 µM) | MIC [5]: 2 µg/mL (≈ 2.61 µM); MIC [18]: 0.25 µg/mL (≈ 0.326 µM); MIC [19]: > 16 µg/mL; MIC [20]: 0.03 µg/mL (≈ 0.0392 µM); MIC [21]: 0.03 µg/mL (≈ 0.0392 µM); MIC [25]: 0.01 µg/mL (≈ 0.0131 µM); MIC [26]: 0.1 µg/mL (≈ 0.131 µM)
4 | C=CCOC1(C)CC(C)C(=NO)C(C)C(O)C(C)(O)C(CC)OC(=O)C(C)C(=O)C(C)C1OC1OC(C)CC(N(C)C)C1O (stereo not shown) [Example 2, Compound of Formula (VIII): X is NOH, R is allyl] | > 100 µg/mL | 6.2 µg/mL | > 100 µg/mL | > 100 µg/mL | 3.1 µg/mL | 3.1 µg/mL | 1.56 µg/mL | 25 µg/mL | 0.2 µg/mL | > 100 µg/mL | 3.1 µg/mL | > 100 µg/mL | 3.1 µg/mL | 3.1 µg/mL | 3.1 µg/mL | 1.56 µg/mL | 6.2 µg/mL | 1.56 µg/mL | 3.1 µg/mL | > 100 µg/mL | MIC [25]: 3.1 µg/mL; MIC [26]: 3.1 µg/mL
